Experimental data taken from patent publication US20210198256A1, “COMPOUNDS FOR THE DEGRADATION OF BRD9 OR MTH1” (C4 Therapeutics, Inc., priority 2018, published 2021).

Tested on: SMART-CAR_MTH1-WT (Jurkat.2 cells)
Experiment: HTFC Assay (HTFC DC50)
Type: cell-based, human
Conditions: Jurkat.2 (SMART-CAR_MTH1-WT) cells, 4 hours at 37° C., FITC anti-HA staining, flow cytometry
Experimental: FITC anti-HA.11 epitope tag antibody (Biolegend #901507) FITC Mouse IgG1 k isotope control antibody (Biolegend #400108)
Dry dispense 10 nL/well of compound+90 […] into 96-well V-bottom plates: 4 compounds/plate in 11-point dose response in biological duplicates. Column 12 as DMSO controls.
• 1. Plate Jurkat.2 (SMART-CAR_MTH1-WT) cells with Combi on top of dry dispensed compound: 500,000 cells/mL, 100 uL/well • 2. Incubate for 4 hours at 37° C. • 3. Fixation, permeabilization, and staining: • a. Centrifuge at 1500 rpm for 7 minutes, remove supernatant. • b. Add 100 μl of Fixation/Permeabilization Solution, seal plates, vortex, pulse spin, and incubate at 4° C. for 30 minutes. • c. Centrifuge at 1500 rpm for 7 minutes, remove supernatant. • d. Dilute BD Perm/Wash Buffer to 1× with milliQ water. • e. Wash with 200 uL of BD Perm/Wash Buffer, seal plates, vortex. • f. Centrifuge at 1500 rpm for 7 minutes, remove supernatant. • g. Wash with 200 uL of BD Perm/Wash Buffer, seal plates, vortex. (Option to stop, store at 4° C. if needed) • h. Centrifuge at 1500 rpm for 7 minutes, remove supernatant. • i. Add 50 uL BD Perm/Wash Buffer containing 1:1000 of HA-FITC (Well A12:D12) or IgG-FITC (Well F12:H12) directly conjugated antibody, seal plates, vortex, pulse spin, and incubate at 4° C. for 1 hour. • j. Centrifuge at 1500 rpm for 7 minutes, remove supernatant. • k. Wash with 200 uL of BD Perm/Wash Buffer, seal plates, vortex. • 4. Centrifuge at 1500 rpm for 7 minutes, remove supernatant. • a. Resuspend in 200 ul of BD Perm/Wash Buffer. (Option to stop, store at 4° C. if needed)
• 1. Use analysis from template HTFC file. • 2. Export statistics by going to Tools>Group stats, save as a .csv file with the plate barcode as the name. • 3. Remove all columns from this file except for “Well”, “Sample ID”, “Date”, and “HA+.Mean.Y Mean for HA+ gated by P01.cells”. • 4. Create a New DB Analysis in Scinamic using the “HTFC-Cell Pharm” template. • 5. Load Incyte file “barcode”.csv. • 6. Load Echo file with the generated Echo report (P:\LabData\Echo\Project\SMARTCAR\Echo Report\Labcyte Echo Dose-Response) • 7. Edit Platemap.xlsx with the plate barcodes. • 8. Load Plate Map with this file. • 9. Cleanup compound Ids, mask control outliers, and assign curves.
Using the above assay the HTFC DC50 data was determined for the compounds in Table 2 below.
Example 6: HiBit and HTFC DC50 Data for Representative Compounds of the Present Invention

DC50, < 100 nM:
COc1cc2ncc(C(=O)NC(C)(C)C)c(Nc3ccccc3)c2cc1-c1ccc(C(=O)NCCCCn2cc(CNc3cccc4c3C(=O)N(C3CCC(=O)NC3=O)C4=O)nn2)nc1 (stereo not drawn) [Compound 373, N-(tert-butyl)-6-(6-((4-(4-(((2-(2,6-dioxopiperidin-3-yl)-1,3-dioxoisoindolin-4-yl)amino)methyl)-1H-1,2,3-triazol-1-yl)butyl)carbamoyl)pyridin-3-yl)-7-methoxy-4-(phenylamino)quinoline-3-carboxamide]
CNC(=O)c1cnc2cc(OC)c(-c3cnc(C(=O)NCCCCn4cc(CNc5cccc6c5C(=O)N(C5CCC(=O)NC5=O)C6=O)nn4)cn3)cc2c1Nc1ccccc1 (stereo not drawn) [Compound 380, 6-(5-((4-(4-(((2-(2,6-dioxopiperidin-3-yl)-1,3-dioxoisoindolin-4-yl)amino)methyl)-1H-1,2,3-triazol-1-yl)butyl)carbamoyl)pyrazin-2-yl)-7-methoxy-N-methyl-4-(phenylamino)quinoline-3-carboxamide]
CNC(=O)c1cnc2ccc(NCCCCCCCCCCNC(=O)COc3cccc4c3C(=O)N(C3CCC(=O)NC3=O)C4=O)cc2c1NC1CC1 (stereo not drawn) [Compound 460, 4-(cyclopropylamino)-6-((10-(2-((2-(2,6-dioxopiperidin-3-yl)-1,3-dioxoisoindolin-4-yl)oxy)acetamido)decyl)amino)-N-methylquinoline-3-carboxamide]
